{
  "source": "patent US8906383B2",
  "about": "“T cell receptor having binding affinity for a peptide-MHC complex and uses thereof” (King's College London, priority 2007, dated 2014)",
  "key": {"[1]": {"test_system": "CD8 T cells from HLA-A2+ type 1 diabetic patients", "experiment": "Interferon-gamma cytokine ELISPOT with patient PBMCs", "type": "cell-based, human", "settings": "PBMCs of patients with new-onset type 1 diabetes and HLA-A2; peptide 10 μM; FIG. 8a", "description": "The following ELISPOT assays were carried out using the methods substantially as described in Arif et al., (2004) J Clin Invest 113: 451-63.\nFresh peripheral blood mononuclear cells (PBMCs) in RPMI 1640 supplemented with antibiotics (TC medium; all Life Technologies) and 10% human AB serum (Harlan SeraLab, Leicestershire, UK) were dispensed into 48-well plates at a density of 2×10^6 cells in 0.5 ml supplemented with peptide to a final concentration of 10 μM and incubated at 37° C., 5% CO2, tilted by 5°. Control wells comprised TC medium containing an equivalent concentration of peptide diluent alone (DMSO). On day +1, 0.5 ml pre-warmed TC medium/10% AB was added and on day +2, non-adherent cells were re-suspended using pre-warmed TC medium/2% AB, washed, brought to a concentration of 1×10^6 cells/300 μl and 100 μl dispensed in triplicate into wells of 96-well ELISA plates (Nunc Maxisorp, Merck, Poole, UK) pre-blocked with 1% BSA in PBS and pre-coated with monoclonal anti-IFN-γ capture antibody (U-Cytech, Utrecht, NL). After capture at 37° C., 5% CO2 for 7 hours, cells were lysed in ice cold water, plates washed in PBS/Tween 20 and spots developed according to the manufacturer's instructions. Plates were dried and spots of 80-120 μm counted in a BioReader 3000 (BioSys, Karben, Germany). […]"}, "soluble HLA-A2 molecules": {"test_system": "soluble HLA-A2 molecules", "settings": "synthetic peptide; Chang et al., (2003) Tissue Antigens 62: 408-417; cited from earlier work"}},
  "data": [
    {"sequence": "ALWGPDPAAA [PPI15-24]", "values": [
      {"measurement": "CD8 T cell reactivity to PPI peptide by interferon-gamma ELISPOT", "setting": "[1]", "value": "demonstrate the presence of CD8 T cells specific for"},
      {"measurement": "Capability of being loaded in-vitro by soluble HLA-A2", "setting": "soluble HLA-A2 molecules", "value": "capable of being loaded in-vitro by soluble HLA-A2 molecules"}
    ]},
    {"sequence": "WGPDPAAA [PPI17-24]", "values": [
      {"measurement": "CD8 T cell reactivity to PPI peptide by interferon-gamma ELISPOT", "setting": "[1]", "value": "demonstrate the presence of CD8 T cells specific for"}
    ]}
  ]
}
